Assay results from patent US4068074A, “Cephalosporin derivatives having at the 3-position of the cephem ring a heterocyclic thiomethyl group with a carboxy or sulfo group and at the 7-position of the cephem ring an α-heterocylic acylaminophenyl-acetamide group” (priority 1974, dated 1978).
Values after ≈ are worked out from the molar mass of the structure shown. Where two headings read alike, the source gives them in different places.

Assays:
Format in all cases: cell-based
[1] = test system: Staphylococcus Onuma; test: MIC against bacteria (Table I), strain (18)
Source text: (§1) Now, for illustrating the excellent pharmacological effects of the compounds of this invention, the values of MIC (γ/ml.) of the compounds against various bacteria are shown in Table 1, in which the compounds of this invention used are shown by example numbers.
(18) Staphylococcus Onuma

[2] = test system: Psuedomonas ovalis IMA 1002; test: MIC against bacteria (Table I), strain (6); conditions: (6) Psuedomonas ovalis IMA 1002; read-out: MIC
Source text: as §1
(6) Psuedomonas ovalis IMA 1002

[3] = test system: Proteus vulgaris OXK US; test: MIC against bacteria (Table I), strain (1); conditions: (1) Proteus vulgaris OXK US; read-out: MIC
Source text: as §1
(1) Proteus vulgaris OXK US

[4] = test system: Salmonella enteritidis; test: MIC against bacteria (Table I), strain (10); conditions: Salmonella enterica
Source text: as §1
(10) Salmonella enteritidis

[5] = test system: Staphylococcus Shimanishi; test: MIC against bacteria (Table I), strain (17); conditions: (17) Staphylococcus Shimanishi; read-out: MIC
Source text: as §1
(17) Staphylococcus Shimanishi

[6] = test system: Escherichia coli kauffmann 0-1; test: MIC against bacteria (Table I), strain (7); conditions: Escherichia coli
Source text: as §1
(7) Escherichia coli kauffmann 0-1

[7] = test system: Staphylococcus aureus 209P; test: MIC against bacteria (Table I), strain (16)
Source text: as §1
(16) Staphylococcus aureus 209P

[8] = test system: Bacillus subtilis ATCC 6633; test: MIC against bacteria (Table I), strain (14); conditions: ATCC6633; (14) Bacillus subtilis ATCC 6633; read-out: MIC
Source text: as §1
(14) Bacillus subtilis ATCC 6633

[9] = test system: Bacillus megatherium 10778; test: MIC against bacteria (Table I), strain (13); conditions: (13) Bacillus megatherium 10778; read-out: MIC
Source text: as §1

[10] = test system: Proteus mirabilis IXM OM-19; test: MIC against bacteria (Table I), strain (3); conditions: IXMOM19; (3) Proteus mirabilis IXM OM-19; read-out: MIC
Source text: as §1
(3) Proteus mirabilis IXM OM-19

[11] = test system: Pseudomonas aeruginosa 99 (Gentamycin resistant); test: MIC against bacteria (Table I), strain (5); conditions: (5) Pseudomonas aeruginosa 99 (Gentamycin resistant); read-out: MIC
Source text: as §1
(5) Pseudomonas aeruginosa 99 (Gentamycin resistant)

[12] = test system: Salmonella typhi H901 W; test: MIC against bacteria (Table I), strain (9); conditions: Salmonella enterica, TYPHI
Source text: as §1
(9) Salmonella typhi H901 W

[13] = test system: Proteus vulgaris 0X 19US; test: MIC against bacteria (Table I), strain (2); conditions: 0X19US
Source text: as §1
(2) Proteus vulgaris 0X 19US

[14] = test system: Shigella sonnei II 37148; test: MIC against bacteria (Table I), strain (12); conditions: II37148
Source text: as §1

[15] = test system: Klebsiella pneumoniae ATCC 10031; test: MIC against bacteria (Table I), strain (8); conditions: ATCC10031; (8) Klebsiella pneumoniae ATCC 10031; read-out: MIC
Source text: as §1
(8) Klebsiella pneumoniae ATCC 10031

[16] = test system: Pseudomonas aeruginosa ATCC 8689; test: MIC against bacteria (Table I), strain (4); conditions: ATCC8689
Source text: as §1
(4) Pseudomonas aeruginosa ATCC 8689

[17] = test system: Micrococcus flavus ATCC 10240; test: MIC against bacteria (Table I), strain (15); conditions: ATCC10240
Source text: as §1
(15) Micrococcus flavus ATCC 10240

[18] = test system: Shigella flexneri 2a 1675; test: MIC against bacteria (Table I), strain (11); conditions: 2A1675
Source text: as §1

[19] = (10) Salmonella enteritidis, read-out: MIC
[20] = (12) Shigella sonnei II 37148, read-out: MIC
[21] = (11) Shigella flexneri 2a 1675, read-out: MIC
[22] = (18) Staphylococcus Onuma, read-out: MIC
[23] = (2) Proteus vulgaris 0X 19US, read-out: MIC
[24] = (4) Pseudomonas aeruginosa ATCC 8689, read-out: MIC

Compound	MIC [2] [µg/mL]	MIC [3] [µg/mL]	MIC [4, 19] [µg/mL]	MIC [5] [µg/mL]	MIC [6] [µg/mL]	MIC [8] [µg/mL]	MIC [9] [µg/mL]	MIC [10] [µg/mL]	MIC [11] [µg/mL]	MIC [12] [µg/mL]	MIC ([13]; Proteus vulgaris) [µg/mL]	MIC [14, 20] [µg/mL]	MIC [15] [µg/mL]	MIC ([17]; Micrococcus flavus) [µg/mL]	MIC [18, 21] [µg/mL]	MIC [1, 22] [µg/mL]	MIC ([7]; Staphylococcus aureus, 209P) [µg/mL]	MIC [13, 23] [µg/mL]	MIC [16, 24] [µg/mL]	further results
O=C(O)C1=C(CSc2nnc(C(=O)O)s2)CS[C@@H]2[C@H](NC(=O)[C@H](NC(=O)c3cnccc3O)c3ccccc3)C(=O)N12 [Example 11, 7-[D-α-(4-hydroxynicoytinoylamido)-α-phenylacetamido]-3-(5-carboxy-1,3,4-thiadiazol-2-yl)thiomethyl-Δ^3-cephem-4-carboxylic acid]	12.5 (≈ 19.9 µM)	0.39 (≈ 0.62 µM)	0.39 (≈ 0.62 µM)	3.13 (≈ 4.98 µM)	25 (≈ 39.8 µM)	0.39 (≈ 0.62 µM)	0.39 (≈ 0.62 µM)	0.56 (≈ 0.891 µM)	12.5 (≈ 19.9 µM)	0.78 (≈ 1.24 µM)	6.25 (≈ 9.94 µM)	25 (≈ 39.8 µM)	3.13 (≈ 4.98 µM)	6.25 (≈ 9.94 µM)	6.25 (≈ 9.94 µM)					MIC ([1]; Staphylococcus): 6.25 µg/mL (≈ 9.94 µM); MIC ([7]; (16) Staphylococcus aureus 209P, read-out: MIC): 0.39 µg/mL (≈ 0.62 µM); MIC ([16]; Pseudomonas aeruginosa): 25 µg/mL (≈ 39.8 µM)
Cc1cc(O)c(C(=O)N[C@@H](C(=O)N[C@@H]2C(=O)N3C(C(=O)O)=C(CSc4nnc(SCC(=O)O)s4)CS[C@H]23)c2ccccc2)cn1 [Example 29, 7-[D-α-(4-hydroxy-6-methylnicotinoylamido)-α-phenylacetamido]-3-(5-carboxymethylthio-1,3,4,-thiadiazol-2-yl)thiomethyl-Δ^3-cephem-4-carboxylic acid]	12.5 (≈ 18.1 µM)	< 0.09	0.78 (≈ 1.13 µM)	6.25 (≈ 9.07 µM)	3.13 (≈ 4.54 µM)	0.78 (≈ 1.13 µM)	0.78 (≈ 1.13 µM)	0.78 (≈ 1.13 µM)	6.25 (≈ 9.07 µM)	1.56 (≈ 2.26 µM)		3.13 (≈ 4.54 µM)	6.25 (≈ 9.07 µM)		0.78 (≈ 1.13 µM)	12.5 (≈ 18.1 µM)	1.56 (≈ 2.26 µM)	12.5 (≈ 18.1 µM)	12.5 (≈ 18.1 µM)	MIC ([17]; (15) Micrococcus flavus ATCC 10240, read-out: MIC): 6.25 µg/mL (≈ 9.07 µM)
O=C(O)CSc1nnc(SCC2=C(C(=O)O)N3C(=O)[C@@H](NC(=O)[C@H](NC(=O)c4cnccc4O)c4ccc(O)cc4)[C@H]3SC2)s1 [Example 33, 7-[D-α-(4-hydroxynicotinoylamido)-α-p-hydroxyphenylacetamido]-3-[5-carboxymethylthio-1,3,4-Δ^3-thiadiazol-2-yl]thiomethyl-cephem-4-carboxylic acid]	12.5 (≈ 18.1 µM)	< 0.09	1.56 (≈ 2.26 µM)	12.5 (≈ 18.1 µM)	3.13 (≈ 4.53 µM)	0.78 (≈ 1.13 µM)	0.78 (≈ 1.13 µM)	0.39 (≈ 0.565 µM)	25 (≈ 36.2 µM)	3.13 (≈ 4.53 µM)	12.5 (≈ 18.1 µM)		25 (≈ 36.2 µM)	3.13 (≈ 4.53 µM)		25 (≈ 36.2 µM)	3.13 (≈ 4.53 µM)		25 (≈ 36.2 µM)	MIC ([14]; Shigella sonnei): 3.13 µg/mL (≈ 4.53 µM); MIC ([18]; Shigella flexneri): 3.13 µg/mL (≈ 4.53 µM)
CC(Sc1nnc(SCC2=C(C(=O)O)N3C(=O)[C@@H](NC(=O)[C@H](NC(=O)c4cnccc4O)c4ccccc4)[C@H]3SC2)s1)C(=O)O (stereo partly drawn) [Example 21, 7-[D-α-(4-hydroxynicotinoylamido)-α-phenylacetamido]-3-[5-(1-carboxyethylthio)-1,3,4-thiadiazol-2-yl]thiomethyl-Δ^3-cephem-4-carboxylic acid]	12.5 (≈ 18.1 µM)	< 0.09		6.25 (≈ 9.07 µM)	3.13 (≈ 4.54 µM)	0.39 (≈ 0.566 µM)	0.39 (≈ 0.566 µM)	0.39 (≈ 0.566 µM)	12.5 (≈ 18.1 µM)	1.56 (≈ 2.26 µM)		3.13 (≈ 4.54 µM)	6.25 (≈ 9.07 µM)	3.13 (≈ 4.54 µM)	1.56 (≈ 2.26 µM)	6.25 (≈ 9.07 µM)	1.56 (≈ 2.26 µM)	0.19 (≈ 0.276 µM)	12.5 (≈ 18.1 µM)	MIC ([4]; ENTERITIDIS): 0.39 µg/mL (≈ 0.566 µM)
